For eight molecules, IC50, Nav1.4/Nav1.7 and Nav1.5/Nav1.7 results are on record in patent publication US9636418B2 (priority 2013, dated 2017).

Values joined by “and” are separate entries in the source; they are usually repeats but may differ in a detail not shown here. Identical values can stand only once. Like-named read-outs stand apart in the source and are kept apart here.

Holding throughout (experiment): cell-based
The target of assay [1] is T1, hNav1.4 (Homo sapiens, UniProt P35499). Conditions: for IC50: IonWorks Quattro, read-out: IC50 Nav1.4; for Nav1.4/Nav1.7: ratio of IonWorks Quattro IC50 values. On the technique in general: In patch-clamp work, channel activity is measured electrically.
T1 sequence (P35499 whole entry): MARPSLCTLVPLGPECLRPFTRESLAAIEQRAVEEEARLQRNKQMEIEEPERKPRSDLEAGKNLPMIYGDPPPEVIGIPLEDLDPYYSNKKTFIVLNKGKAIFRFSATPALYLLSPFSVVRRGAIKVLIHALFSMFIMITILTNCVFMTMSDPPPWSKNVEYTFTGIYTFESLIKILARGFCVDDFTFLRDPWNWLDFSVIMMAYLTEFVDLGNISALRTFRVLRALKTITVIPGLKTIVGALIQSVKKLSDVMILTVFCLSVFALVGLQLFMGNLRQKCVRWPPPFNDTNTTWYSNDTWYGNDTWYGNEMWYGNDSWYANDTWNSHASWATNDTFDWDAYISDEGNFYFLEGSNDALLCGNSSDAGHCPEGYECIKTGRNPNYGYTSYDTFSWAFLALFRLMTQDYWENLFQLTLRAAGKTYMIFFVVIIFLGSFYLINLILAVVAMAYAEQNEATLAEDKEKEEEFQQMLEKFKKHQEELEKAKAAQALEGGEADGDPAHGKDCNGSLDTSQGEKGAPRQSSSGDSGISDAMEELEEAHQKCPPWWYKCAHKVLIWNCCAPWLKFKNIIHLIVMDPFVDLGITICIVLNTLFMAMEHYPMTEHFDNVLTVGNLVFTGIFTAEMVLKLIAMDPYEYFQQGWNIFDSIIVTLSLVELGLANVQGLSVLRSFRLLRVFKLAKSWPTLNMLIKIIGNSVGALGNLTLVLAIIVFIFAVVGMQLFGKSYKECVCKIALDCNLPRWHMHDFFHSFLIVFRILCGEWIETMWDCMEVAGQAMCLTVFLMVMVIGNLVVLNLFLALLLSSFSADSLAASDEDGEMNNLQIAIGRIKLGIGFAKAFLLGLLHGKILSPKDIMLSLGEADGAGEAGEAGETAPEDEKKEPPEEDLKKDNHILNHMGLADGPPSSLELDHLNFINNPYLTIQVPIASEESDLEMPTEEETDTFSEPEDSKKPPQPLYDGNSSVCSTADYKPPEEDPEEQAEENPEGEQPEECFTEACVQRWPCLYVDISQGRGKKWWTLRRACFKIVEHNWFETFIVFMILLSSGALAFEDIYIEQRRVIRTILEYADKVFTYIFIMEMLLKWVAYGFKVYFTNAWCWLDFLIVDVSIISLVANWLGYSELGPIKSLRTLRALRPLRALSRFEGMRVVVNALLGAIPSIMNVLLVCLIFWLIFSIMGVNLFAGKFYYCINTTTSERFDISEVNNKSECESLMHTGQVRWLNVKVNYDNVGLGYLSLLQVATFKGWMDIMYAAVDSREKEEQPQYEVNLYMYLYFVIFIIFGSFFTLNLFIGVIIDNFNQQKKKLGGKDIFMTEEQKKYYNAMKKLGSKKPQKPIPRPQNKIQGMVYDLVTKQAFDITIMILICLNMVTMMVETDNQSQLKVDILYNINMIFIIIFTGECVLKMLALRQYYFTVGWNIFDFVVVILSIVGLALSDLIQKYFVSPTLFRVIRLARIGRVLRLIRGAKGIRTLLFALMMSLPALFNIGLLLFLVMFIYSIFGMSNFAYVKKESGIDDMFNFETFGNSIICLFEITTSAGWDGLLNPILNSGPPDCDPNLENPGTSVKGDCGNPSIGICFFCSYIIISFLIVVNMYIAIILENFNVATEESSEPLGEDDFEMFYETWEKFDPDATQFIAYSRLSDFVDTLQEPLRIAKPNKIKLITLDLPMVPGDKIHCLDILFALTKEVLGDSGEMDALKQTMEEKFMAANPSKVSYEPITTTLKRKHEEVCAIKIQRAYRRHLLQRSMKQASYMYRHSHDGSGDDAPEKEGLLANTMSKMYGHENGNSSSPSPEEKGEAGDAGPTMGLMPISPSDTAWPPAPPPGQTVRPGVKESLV
Assay [2] addresses T2, hNav1.7 (Homo sapiens, UniProt Q15858). Particulars: IonWorks Quattro; read-out: IC50 Nav1.7.
For assay [3], the target named is T3, hNav1.5 (Homo sapiens, UniProt Q14524). Conditions: IonWorks Quattro; read-out: IC50 Nav1.5.
T3 sequence (Q14524 whole entry): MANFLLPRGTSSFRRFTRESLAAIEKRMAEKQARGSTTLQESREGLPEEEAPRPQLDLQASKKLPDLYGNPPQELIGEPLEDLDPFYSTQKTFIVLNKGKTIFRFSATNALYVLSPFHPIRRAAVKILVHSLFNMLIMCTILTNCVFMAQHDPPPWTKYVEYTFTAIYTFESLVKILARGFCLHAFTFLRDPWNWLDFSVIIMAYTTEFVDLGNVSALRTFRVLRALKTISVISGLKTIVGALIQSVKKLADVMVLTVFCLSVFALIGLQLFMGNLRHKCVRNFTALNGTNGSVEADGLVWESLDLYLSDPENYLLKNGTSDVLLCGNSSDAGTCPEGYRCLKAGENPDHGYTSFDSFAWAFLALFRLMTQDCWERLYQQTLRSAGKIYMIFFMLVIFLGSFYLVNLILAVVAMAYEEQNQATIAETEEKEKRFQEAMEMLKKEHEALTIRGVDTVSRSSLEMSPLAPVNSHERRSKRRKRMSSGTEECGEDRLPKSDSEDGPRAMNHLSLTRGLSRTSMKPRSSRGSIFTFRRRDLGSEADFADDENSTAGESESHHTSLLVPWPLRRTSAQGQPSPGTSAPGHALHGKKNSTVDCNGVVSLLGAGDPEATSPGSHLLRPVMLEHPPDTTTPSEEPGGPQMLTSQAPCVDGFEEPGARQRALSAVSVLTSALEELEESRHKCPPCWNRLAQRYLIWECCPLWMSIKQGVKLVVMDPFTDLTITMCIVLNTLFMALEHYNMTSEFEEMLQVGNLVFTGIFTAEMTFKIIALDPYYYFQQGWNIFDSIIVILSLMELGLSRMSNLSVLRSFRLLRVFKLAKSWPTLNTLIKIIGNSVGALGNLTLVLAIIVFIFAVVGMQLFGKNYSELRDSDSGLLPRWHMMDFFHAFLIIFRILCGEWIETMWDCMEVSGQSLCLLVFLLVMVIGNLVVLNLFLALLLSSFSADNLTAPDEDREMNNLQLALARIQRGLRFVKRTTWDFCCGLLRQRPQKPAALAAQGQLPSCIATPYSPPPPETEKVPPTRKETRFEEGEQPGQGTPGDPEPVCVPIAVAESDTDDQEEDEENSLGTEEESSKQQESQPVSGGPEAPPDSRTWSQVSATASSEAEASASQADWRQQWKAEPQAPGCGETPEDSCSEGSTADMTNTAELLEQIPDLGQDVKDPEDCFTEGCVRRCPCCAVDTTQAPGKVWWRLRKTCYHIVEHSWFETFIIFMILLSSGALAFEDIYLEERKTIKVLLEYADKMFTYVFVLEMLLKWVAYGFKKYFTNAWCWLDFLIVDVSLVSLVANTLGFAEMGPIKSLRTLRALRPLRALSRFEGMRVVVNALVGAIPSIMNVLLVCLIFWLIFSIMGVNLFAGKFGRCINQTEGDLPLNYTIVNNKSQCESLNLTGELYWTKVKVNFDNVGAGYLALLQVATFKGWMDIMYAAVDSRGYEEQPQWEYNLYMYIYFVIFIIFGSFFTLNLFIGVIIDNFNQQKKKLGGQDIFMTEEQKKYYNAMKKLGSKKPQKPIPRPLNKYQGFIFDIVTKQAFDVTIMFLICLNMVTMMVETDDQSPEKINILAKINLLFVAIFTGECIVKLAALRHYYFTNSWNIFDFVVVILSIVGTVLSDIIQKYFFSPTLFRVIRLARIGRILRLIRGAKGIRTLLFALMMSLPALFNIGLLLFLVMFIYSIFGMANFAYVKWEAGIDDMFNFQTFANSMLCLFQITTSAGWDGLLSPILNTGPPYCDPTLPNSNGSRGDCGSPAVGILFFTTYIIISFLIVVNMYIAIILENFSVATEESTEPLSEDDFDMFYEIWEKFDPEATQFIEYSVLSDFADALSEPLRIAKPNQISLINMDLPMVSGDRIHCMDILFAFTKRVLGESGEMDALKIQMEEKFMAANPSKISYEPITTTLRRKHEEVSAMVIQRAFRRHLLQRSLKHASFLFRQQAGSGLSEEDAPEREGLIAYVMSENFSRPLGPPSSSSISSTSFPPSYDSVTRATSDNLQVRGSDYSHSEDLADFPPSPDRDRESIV
For assay [4], the target named is hNav1.3 (Homo sapiens, UniProt Q9NY46). Conditions: IonWorks Quattro; read-out: IC50 Nav1.3.
In assay [5] the target is T2, hNav1.7. The class given is cell-based. Conditions: PatchXpress, tonic block; read-out: PX hNav1.7 Tonic IC50.
Assay [6] addresses T1, hNav1.4. Particulars: for IC50: PatchXpress, tonic block, read-out: PX hNav1.4 Tonic IC50; for Nav1.4/Nav1.7: ratio of PX tonic IC50 values.
Assay [7] has as its target T3, hNav1.5. Conditions: for IC50: PatchXpress, tonic block, read-out: PX hNav1.5 Tonic IC50; for Nav1.5/Nav1.7: ratio of PX tonic IC50 values.

In general, IC50 refers to the point on the concentration scale where inhibition reaches its midpoint. Regarding `CCC[C@@H]1NC(=O)[C@H](Cc2c[nH]c3ccccc23)NC(=O)[C@H](CCCCN)NC(=O)[C@H](CCC(N)=O)NC(=O)[C@@H](NC(=O)[C@@H](N)Cc2ccc(O)cc2)CSSC[C@@H]2NC(=O)[C@@H]3CSSC[C@@H](C(=O)N[C@@H](CCCNC(=N)N)C(=O)N[C@@H](CCCCN)C(=O)N[C@H](C(=O)N[C@H](C(N)=O)[C@@H](C)CC)[C@@H](C)CC)NC(=O)[C@H](Cc4c[nH]c5ccccc45)NC(=O)[C@H](CC(C)C)NC(=O)[C@H](CCCCN)NC(=O)[C@H](CSSC[C@H](NC(=O)[C@H]([C@@H](C)O)NC(=O)[C@H](Cc4c[nH]c5ccccc45)NC1=O)C(=O)N[C@@H](CC(=O)O)C(=O)N[C@@H](CO)C(=O)N[C@@H](CCCCN)C(=O)N[C@@H](CCCNC(=N)N)C(=O)N[C@@H](C)C(=O)N3)NC(=O)[C@H](CCC(=O)O)NC(=O)[C@H](CC(C)C)NC(=O)CNC(=O)[C@H](CCC(=O)O)NC2=O` [compound 111], the IC50 was more than 5000 nM in assay [1], 690 nM in assay [2], 9200 nM in assay [3] and more than 5000 nM in assay [4]. For the same molecule, the Nav1.4/Nav1.7 in assay [1] came to 7.

With `CC[C@H](C)[C@H](NC(=O)[C@H](CCCCN)NC(=O)[C@H](CCCNC(=N)N)NC(=O)[C@@H]1CSSC[C@@H]2NC(=O)[C@H](C)NC(=O)[C@H](CCCNC(=N)N)NC(=O)[C@H](CCCCN)NC(=O)[C@H](CO)NC(=O)[C@H](CC(=O)O)NC(=O)[C@@H]3CSSC[C@H](NC(=O)[C@H](CCC(=O)O)NC(=O)[C@H](CC(C)C)NC(=O)CNC(=O)[C@H](CCC(=O)O)NC(=O)[C@H](CSSC[C@H](NC(=O)[C@@H](N)Cc4ccc(O)cc4)C(=O)N[C@@H](CCC(N)=O)C(=O)N[C@@H](CCCCN)C(=O)N[C@@H](Cc4c[nH]c5ccccc45)C(=O)N[C@@H](CCSC)C(=O)N[C@@H](Cc4c[nH]c5ccccc45)C(=O)N[C@@H]([C@@H](C)O)C(=O)N3)NC2=O)C(=O)N[C@@H](CCCCN)C(=O)N[C@@H](CC(C)C)C(=O)N[C@@H](Cc2c[nH]c3ccccc23)C(=O)N1)C(=O)N[C@H](C(=O)N[C@@H](Cc1c[nH]c2ccccc12)C(N)=O)[C@@H](C)CC` [compound 113], the IC50 in assay [1] is more than 5000 nM; in assay [2], 170 nM; in assay [3], 11100 nM; in assay [4] it was more than 5000 nM. The Nav1.4/Nav1.7 in assay [1] is on record as 30.

For the molecule `CC[C@H](C)[C@H](NC(=O)[C@@H](NC(=O)[C@H](CCCCN)NC(=O)[C@H](CCCNC(=N)N)NC(=O)[C@@H]1CSSC[C@@H]2NC(=O)[C@H](C)NC(=O)[C@H](CCCNC(=N)N)NC(=O)[C@H](CCCCN)NC(=O)[C@H](CO)NC(=O)[C@H](CC(=O)O)NC(=O)[C@@H]3CSSC[C@H](NC(=O)[C@H](Cc4ccc(C(=O)O)cc4)NC(=O)[C@H](CC(C)C)NC(=O)CNC(=O)[C@H](CCC(=O)O)NC(=O)[C@H](CSSC[C@H](NC(=O)[C@@H](N)Cc4ccc(O)cc4)C(=O)N[C@@H](CCC(N)=O)C(=O)N[C@@H](CCCCN)C(=O)N[C@@H](Cc4c[nH]c5ccccc45)C(=O)N[C@@H](CCSC)C(=O)N[C@@H](Cc4c[nH]c5ccccc45)C(=O)N[C@@H]([C@@H](C)O)C(=O)N3)NC2=O)C(=O)N[C@@H](CCCCN)C(=O)N[C@@H](CC(C)C)C(=O)N[C@@H](Cc2c[nH]c3ccccc23)C(=O)N1)[C@@H](C)CC)C(N)=O` [compound 114], the IC50 in assay [1] is more than 5000 nM; in assay [2], 210 nM; in assay [3], 14200 nM; in assay [4], more than 5000 nM. In assay [1], the Nav1.4/Nav1.7 is 24.

For `CC[C@H](C)[C@H](NC(=O)[C@@H](NC(=O)[C@H](CCCCN)NC(=O)[C@H](CCCNC(=N)N)NC(=O)[C@@H]1CSSC[C@@H]2NC(=O)[C@H](C)NC(=O)[C@H](CCCNC(=N)N)NC(=O)[C@H](CCCCN)NC(=O)[C@H](CO)NC(=O)[C@H](CC(=O)O)NC(=O)[C@@H]3CSSC[C@H](NC(=O)[C@H]([C@@H](C)CC)NC(=O)[C@H](CC(C)C)NC(=O)CNC(=O)[C@H](CCC(=O)O)NC(=O)[C@H](CSSC[C@H](NC(=O)[C@@H](N)Cc4ccc(O)cc4)C(=O)N[C@@H](CCC(N)=O)C(=O)N[C@@H](CCCCN)C(=O)N[C@@H](Cc4c[nH]c5ccccc45)C(=O)N[C@@H](CCSC)C(=O)N[C@@H](Cc4c[nH]c5ccccc45)C(=O)N[C@@H]([C@@H](C)O)C(=O)N3)NC2=O)C(=O)N[C@@H](CCCCN)C(=O)N[C@@H](CC(C)C)C(=O)N[C@@H](Cc2c[nH]c3ccccc23)C(=O)N1)[C@@H](C)CC)C(N)=O` [compound 118], the IC50 came out at 1300 nM in assay [1], 90 nM in assay [2], 8600 nM in assay [3] and 2200 nM in assay [4]. Moreover, the Nav1.4/Nav1.7 in assay [1] is listed as 15.

On to `CC[C@H](C)[C@H](NC(=O)CNC(=O)[C@H](CCCCN)NC(=O)[C@H](CCCNC(=N)N)NC(=O)[C@@H]1CSSC[C@@H]2NC(=O)[C@H](C)NC(=O)[C@H](CCCNC(=N)N)NC(=O)[C@H](CCCCN)NC(=O)[C@H](CO)NC(=O)[C@H](CC(=O)O)NC(=O)[C@@H]3CSSC[C@H](NC(=O)[C@H](CCC(=O)O)NC(=O)[C@H](CC(C)C)NC(=O)CNC(=O)[C@H](CCC(=O)O)NC(=O)[C@H](CSSC[C@H](NC(=O)[C@@H](N)Cc4ccc(O)cc4)C(=O)N[C@@H](CCC(N)=O)C(=O)N[C@@H](CCCCN)C(=O)N[C@@H](Cc4c[nH]c5ccccc45)C(=O)N[C@@H](CCSC)C(=O)N[C@@H](Cc4c[nH]c5ccccc45)C(=O)N[C@@H]([C@@H](C)O)C(=O)N3)NC2=O)C(=O)N[C@@H](CCCCN)C(=O)N[C@@H](CC(C)C)C(=O)N[C@@H](Cc2c[nH]c3ccccc23)C(=O)N1)C(N)=O` [compound 134], for which the IC50 in assay [1] was more than 5000 nM; in assay [2], 300 nM and 370 nM; in assay [4] it was more than 5000 nM. Also, the Nav1.4/Nav1.7 in assay [1] was 17 and 13.

Consider `C#CC[C@H](N)C(=O)NCCOCCOCCOCCOCCC(=O)NCCCC[C@@H]1NC(=O)[C@H](CCCNC(=N)N)NC(=O)[C@H](CCCCN)NC(=O)[C@H](CO)NC(=O)[C@H](CC(=O)O)NC(=O)[C@@H]2CSSC[C@@H]3NC(=O)[C@H](CCC(=O)O)NC(=O)[C@H](CC(C)C)NC(=O)CNC(=O)[C@H](CCC(=O)O)NC(=O)[C@H](CSSC[C@H](NC(=O)[C@@H](N)Cc4ccc(O)cc4)C(=O)N[C@@H](CCC(N)=O)C(=O)N[C@@H](CCCCN)C(=O)N[C@@H](Cc4c[nH]c5ccccc45)C(=O)N[C@@H](CCCC)C(=O)N[C@@H](Cc4c[nH]c5ccccc45)C(=O)N[C@@H]([C@@H](C)O)C(=O)N2)NC(=O)[C@H](CSSC[C@@H](C(=O)N[C@@H](CCCNC(=N)N)C(=O)N[C@@H](CCCCN)C(=O)N[C@H](C(=O)N[C@@H](Cc2c[nH]c4ccccc24)C(N)=O)[C@@H](C)CC)NC(=O)[C@H](Cc2c[nH]c4ccccc24)NC(=O)[C@H](CC(C)C)NC(=O)[C@H](CCCCN)NC3=O)NC1=O` [compound 291], for which the 50% inhibitory concentration (IC50) in assay [5] was 30 nM; in assay [2], 28 nM; in assay [6] it was 1130 nM; in assay [7], 3010 nM. Besides, the Nav1.4/Nav1.7 in assay [6] was 38. Further, the Nav1.5/Nav1.7 in assay [7] is reported as 100.

Consider `C#CC[C@H](N)C(=O)NCCOCCOCCOCCOCCOCCOCCOCCOCCOCCOCCOCCOCCC(=O)NCCCC[C@@H]1NC(=O)[C@@H]2CSSC[C@H](NC(=O)[C@@H](N)Cc3ccc(O)cc3)C(=O)N[C@@H](CCC(N)=O)C(=O)N[C@@H](CCCCN)C(=O)N[C@@H](Cc3c[nH]c4ccccc34)C(=O)N[C@@H](CCCC)C(=O)N[C@@H](Cc3c[nH]c4ccccc34)C(=O)N[C@@H]([C@@H](C)O)C(=O)N[C@H]3CSSC[C@H](NC(=O)[C@H](CCC(=O)O)NC(=O)[C@H](CC(C)C)NC(=O)CNC1=O)C(=O)N[C@@H](CCCCN)C(=O)N[C@@H](CC(C)C)C(=O)N[C@@H](Cc1c[nH]c4ccccc14)C(=O)N[C@H](C(=O)N[C@@H](CCCNC(=N)N)C(=O)N[C@@H](CCCCN)C(=O)N[C@H](C(=O)N[C@@H](Cc1c[nH]c4ccccc14)C(N)=O)[C@@H](C)CC)CSSC[C@H](NC(=O)[C@H](C)NC(=O)[C@H](CCCNC(=N)N)NC(=O)[C@H](CCCCN)NC(=O)[C@H](CO)NC(=O)[C@H](CC(=O)O)NC3=O)C(=O)N2` [compound 292], for which the IC50 in assay [5] amounted to 900 nM; in assay [2], 82 nM; in assay [6], 1630 nM; in assay [7], 3120 nM. Further, the Nav1.4/Nav1.7 in assay [6] was found to be 2. In assay [7], the Nav1.5/Nav1.7 amounted to 3.

With `C#CC[C@H](N)C(=O)NCCOCCOCCOCCOCCC(=O)NCCCC[C@@H]1NC(=O)[C@@H]2CSSC[C@H](NC(=O)[C@@H](N)Cc3ccc(O)cc3)C(=O)N[C@@H](CCC(N)=O)C(=O)N[C@@H](CCCCN)C(=O)N[C@@H](Cc3c[nH]c4ccccc34)C(=O)N[C@@H](CCCC)C(=O)N[C@@H](Cc3c[nH]c4ccccc34)C(=O)N[C@@H]([C@@H](C)O)C(=O)N[C@H]3CSSC[C@H](NC(=O)[C@H](CCC(=O)O)NC(=O)[C@H](CC(C)C)NC(=O)CNC1=O)C(=O)N[C@@H](CCCCN)C(=O)N[C@@H](CC(C)C)C(=O)N[C@@H](Cc1c[nH]c4ccccc14)C(=O)N[C@H](C(=O)N[C@@H](CCCNC(=N)N)C(=O)N[C@@H](CCCCN)C(=O)N[C@H](C(=O)N[C@@H](Cc1c[nH]c4ccccc14)C(N)=O)[C@@H](C)CC)CSSC[C@H](NC(=O)[C@H](C)NC(=O)[C@H](CCCNC(=N)N)NC(=O)[C@H](CCCCN)NC(=O)[C@H](CO)NC(=O)[C@H](CC(=O)O)NC3=O)C(=O)N2` [compound 293], the concentration for half-maximal inhibition (IC50) in assay [5] stood at 570 nM; in assay [2], 41 nM; in assay [6], 453 nM; in assay [7], 580 nM. Moreover, the Nav1.4/Nav1.7 in assay [6] came to 1. Also, the Nav1.5/Nav1.7 in assay [7] came to 1.
